Results reported in ChEMBL document CHEMBL1158851, “Friedelane triterpenoids from Maytenus macrocarpa” (J Nat Prod, 1998).

What was measured:
Assay type in all cases: functional, cell-based
[1] = test system: SK-MEL-28; assay: Cytotoxicity against human SK-MEL-28 cells
[2] = test system: A549; assay: Cytotoxicity against human A549 cells
[3] = test system: HT-29; assay: Cytotoxicity against human HT-29 cells
[4] = test system: P388; assay: Cytotoxicity against mouse P388 cells

Measured: IC50

C[C@H]1C(=O)CC(=O)[C@@H]2[C@]1(C)CC[C@H]1[C@@]2(C)CC[C@@]2(C)[C@@H]3CC(C)(C)CC[C@]3(CO)CC[C@]12C
> 10 µg/mL: all assays above

CC(=O)OC[C@]12CCC(C)(C)C[C@H]1[C@]1(C)CC[C@@]3(C)[C@@H]4C(=O)C=C(OC(C)=O)[C@H](C)[C@@]4(C)CC[C@@H]3[C@@]1(C)CC2
> 10 µg/mL: all assays above
